{"source": "ChEMBL document CHEMBL1770144", "about": "“Discovery of potent nucleotide-mimicking competitive inhibitors of hepatitis C virus NS3 helicase” (Bioorg Med Chem Lett, 2011)", "data": [{"experiment": "Competitive inhibition of Hepatitis C virus NS3 helicase", "parameters": "species or system Hepacivirus hominis", "units": {"Ki": "µM"}, "values": [{"smiles": "CCOc1ccc2c(NNS(=O)(=O)c3ccccn3)c3c(nc2c1)CCCC3", "Ki": 0.1}, {"smiles": "CCOc1ccc2c(NNC(=O)c3cnccn3)cc(C)nc2c1", "Ki": 0.75}, {"smiles": "CCOc1ccc2c(NNC(=O)c3ccccc3)cc(C)nc2c1", "Ki": 125}, {"smiles": "CCOc1ccc2c(NNC(=O)c3ccco3)cc(C)nc2c1", "Ki": "> 300"}, {"smiles": "CCOc1ccc2c(NNC(=O)[C@@H]3CSCN3)cc(C)nc2c1", "Ki": "> 300"}, {"smiles": "CCOc1ccc2c(NNC(=O)c3cc4ccccc4cn3)cc(C)nc2c1", "Ki": 250}, {"smiles": "CCOc1ccc2c(NNS(=O)(=O)c3ccccc3)cc(C)nc2c1", "Ki": 5}, {"smiles": "CCOc1ccc2c(NNS(=O)(=O)c3ccc(C)cc3)cc(C)nc2c1", "Ki": 75}, {"smiles": "CCOc1ccc2c(NNS(=O)(=O)c3ccccn3)cc(C)nc2c1", "Ki": 0.3}, {"smiles": "Cc1cc(NNC(=O)c2cnccn2)c2ccccc2n1", "Ki": "> 300"}, {"smiles": "CCOc1ccc2nc(C)cc(NNC(=O)c3cnccn3)c2c1", "Ki": "> 300"}, {"smiles": "CCOc1ccc2c(NNC(=O)c3cnccn3)c3c(nc2c1)CCCC3", "Ki": 0.02}, {"smiles": "O=C(NNc1c2c(nc3ccccc13)CCCC2)c1cnccn1", "Ki": "> 300"}, {"smiles": "CCOc1ccc2c(NNS(=O)(=O)c3ccccc3)c3c(nc2c1)CCCC3", "Ki": 0.16}]}, {"experiment": "Competitive inhibition of Hepatitis C virus NS3 helicase using nucleic acid as substrate", "parameters": "species or system Hepacivirus hominis", "units": {"Ki": "µM"}, "values": [{"smiles": "CCOc1ccc2c(NNC(=O)c3cnccn3)c3c(nc2c1)CCCC3", "Ki": 0.02}]}]}
